According to PubChem BioAssay (NCI):
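Each compound was tested at five concentrations against cells in 96-well plates for 48 hours. At the GI50, growth is halved. TGI: concentration producing complete growth inhibition.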

Columns and labels:
Test in all cases: NCI tumour cell line growth inhibition, 48 h
UACC-62 melanoma = test system: UACC-62 melanoma
NCI-H460 lung = test system: NCI-H460 lung
SNB-19 CNS = test system: SNB-19 CNS
RXF 393 renal = test system: RXF 393 renal
SNB-75 CNS = test system: SNB-75 CNS
HS 578T breast = test system: HS 578T breast
CCRF-CEM leukemia = test system: CCRF-CEM leukemia
HT29 colon = test system: HT29 colon
IGROV1 ovarian = test system: IGROV1 ovarian
A549 NSCLC = test system: A549 NSCLC
UACC-257 melanoma = test system: UACC-257 melanoma
MALME-3M melanoma = test system: MALME-3M melanoma
786-0 renal = test system: 786-0 renal
BT-549 breast = test system: BT-549 breast
SF-295 CNS = test system: SF-295 CNS
HOP-62 NSCLC = test system: HOP-62 NSCLC
SK-OV-3 ovarian = test system: SK-OV-3 ovarian
A498 renal = test system: A498 renal
SN12C renal = test system: SN12C renal
HCC-2998 colon = test system: HCC-2998 colon
MDA-MB-435 = test system: MDA-MB-435
SW-620 colon = test system: SW-620 colon
NCI/ADR-RES ovarian = test system: NCI/ADR-RES ovarian
OVCAR-4 ovarian = test system: OVCAR-4 ovarian
RPMI-8226 leukemia = test system: RPMI-8226 leukemia
NCI-H226 lung = test system: NCI-H226 lung
NCI-H522 lung = test system: NCI-H522 lung
MOLT-4 leukemia = test system: MOLT-4 leukemia
MDA-MB-231 breast = test system: MDA-MB-231 breast
U251 CNS = test system: U251 CNS
SK-MEL-28 melanoma = test system: SK-MEL-28 melanoma
SK-MEL-5 melanoma = test system: SK-MEL-5 melanoma
ACHN renal = test system: ACHN renal
K-562 leukemia = test system: K-562 leukemia
PC-3 prostate = test system: PC-3 prostate
CAKI-1 renal = test system: CAKI-1 renal
SF-268 CNS = test system: SF-268 CNS
OVCAR-3 ovarian = test system: OVCAR-3 ovarian
OVCAR-5 ovarian = test system: OVCAR-5 ovarian
M14 melanoma = test system: M14 melanoma
MCF7 breast = test system: MCF7 breast
SR leukemia = test system: SR leukemia
TK-10 renal = test system: TK-10 renal
SK-MEL-2 melanoma = test system: SK-MEL-2 melanoma
COLO 205 colon = test system: COLO 205 colon
EKVX NSCLC = test system: EKVX NSCLC
T-47D breast = test system: T-47D breast
DU-145 prostate = test system: DU-145 prostate
SF-539 CNS = test system: SF-539 CNS
HCT-15 colon = test system: HCT-15 colon
OVCAR-8 ovarian = test system: OVCAR-8 ovarian
UO-31 renal = test system: UO-31 renal
KM12 colon = test system: KM12 colon

CC(C)Sc1nc(Nc2ccc(S(N)(=O)=O)cc2)c(C#N)c(-c2ccc(F)cc2)n1
GI50 (UACC-62 melanoma): 10.3 µM | TGI (UACC-62 melanoma): 26.3 µM | TGI (NCI-H460 lung): 5.57 µM | GI50 (SNB-19 CNS): 2.85 µM | TGI (SNB-19 CNS): 8.01 µM | TGI (RXF 393 renal): 4.47 µM | GI50 (SNB-75 CNS): 2.49 µM | TGI (SNB-75 CNS): 9.2 µM | GI50 (HS 578T breast): 2.76 µM | TGI (HS 578T breast): 9.31 µM | GI50 (CCRF-CEM leukemia): 7.35 µM | GI50 (HT29 colon): 2.09 µM | TGI (HT29 colon): 4.77 µM | TGI (IGROV1 ovarian): 20.7 µM | TGI (A549 NSCLC): 10.4 µM | GI50 (UACC-257 melanoma): 14.4 µM | TGI (UACC-257 melanoma): 47.8 µM | GI50 (MALME-3M melanoma): 3.2 µM | TGI (MALME-3M melanoma): 10.3 µM | GI50 (786-0 renal): 3.31 µM | TGI (786-0 renal): 11.1 µM | GI50 (BT-549 breast): 9.29 µM | TGI (BT-549 breast): 35.4 µM | GI50 (SF-295 CNS): 1.95 µM | TGI (SF-295 CNS): 3.73 µM | GI50 (HOP-62 NSCLC): 3.12 µM | TGI (HOP-62 NSCLC): 10.7 µM | GI50 (SK-OV-3 ovarian): 3.04 µM | TGI (SK-OV-3 ovarian): 8.94 µM | GI50 (A498 renal): 2.82 µM | GI50 (SN12C renal): 2.38 µM | TGI (SN12C renal): 5.99 µM | GI50 (HCC-2998 colon): 10.7 µM | TGI (HCC-2998 colon): 27.6 µM | GI50 (MDA-MB-435): 4.35 µM | TGI (MDA-MB-435): 31.9 µM | GI50 (SW-620 colon): 3.84 µM | TGI (SW-620 colon): 22.8 µM | GI50 (NCI/ADR-RES ovarian): 3.24 µM | GI50 (OVCAR-4 ovarian): 2.1 µM | TGI (OVCAR-4 ovarian): 4.92 µM | GI50 (RPMI-8226 leukemia): 9.22 µM | TGI (RPMI-8226 leukemia): 64.3 µM | GI50 (NCI-H226 lung): 2.14 µM | TGI (NCI-H226 lung): 5.54 µM | GI50 (NCI-H522 lung): 8 µM | GI50 (MOLT-4 leukemia): 5.39 µM | GI50 (MDA-MB-231 breast): 2.86 µM | TGI (MDA-MB-231 breast): 8.1 µM | GI50 (U251 CNS): 1.81 µM | TGI (U251 CNS): 3.54 µM | GI50 (SK-MEL-28 melanoma): 14.6 µM | TGI (SK-MEL-28 melanoma): 37.7 µM | GI50 (SK-MEL-5 melanoma): 23.3 µM | TGI (SK-MEL-5 melanoma): 77.4 µM | GI50 (ACHN renal): 3.07 µM | TGI (ACHN renal): 9.12 µM | GI50 (K-562 leukemia): 4.26 µM | GI50 (PC-3 prostate): 4.84 µM | TGI (PC-3 prostate): 19 µM | GI50 (CAKI-1 renal): 1.78 µM | TGI (CAKI-1 renal): 3.61 µM | GI50 (SF-268 CNS): 5.49 µM | TGI (SF-268 CNS): 30.6 µM | GI50 (OVCAR-3 ovarian): 3.02 µM | TGI (OVCAR-3 ovarian): 8.51 µM | GI50 (OVCAR-5 ovarian): 14.6 µM | TGI (OVCAR-5 ovarian): 62.4 µM | GI50 (M14 melanoma): 5.59 µM | TGI (M14 melanoma): 23.7 µM | TGI (MCF7 breast): 32.1 µM | GI50 (SR leukemia): 3.73 µM | GI50 (TK-10 renal): 3.08 µM | GI50 (SK-MEL-2 melanoma): 19 µM | TGI (SK-MEL-2 melanoma): 55.7 µM | GI50 (COLO 205 colon): 7.98 µM | TGI (COLO 205 colon): 30.2 µM | GI50 (EKVX NSCLC): 3.31 µM | TGI (EKVX NSCLC): 14.1 µM | GI50 (T-47D breast): 3.46 µM | TGI (T-47D breast): 20.3 µM | GI50 (DU-145 prostate): 5.68 µM | TGI (DU-145 prostate): > 100 µM | TGI (SF-539 CNS): 4.81 µM | TGI (HCT-15 colon): > 100 µM | GI50 (OVCAR-8 ovarian): 3.98 µM | TGI (OVCAR-8 ovarian): 15.7 µM | GI50 (UO-31 renal): 2.39 µM | TGI (UO-31 renal): 8.92 µM | GI50 (KM12 colon): 6.92 µM | TGI (KM12 colon): > 100 µM
